Data: patent publication US11512111B2, “Yeats inhibitors and methods of use thereof” (The University of Hong Kong, priority 2017, dated 2022)
pIC50: −log10 of the molar value.

Assays:
[1] = target: T1, ENL YEATS domain (Homo sapiens, UniProt Q03111); assay: Photo-cross-linking-based competition assay; type: binding; details: competition with photoaffinity probe, in-gel fluorescence
T1 construct: His-SUMO-ENL (1-138); His (N); SUMO (N); made in house; host or cells: E. coli Rosetta
T1 sequence (Q03111 1-138): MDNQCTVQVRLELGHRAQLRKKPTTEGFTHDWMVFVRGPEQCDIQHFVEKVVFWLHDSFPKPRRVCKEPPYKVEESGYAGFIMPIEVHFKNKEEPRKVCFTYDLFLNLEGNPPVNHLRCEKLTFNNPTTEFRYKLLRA

[2] = tested on: c-Myc expression; assay: JQ1-induced decrease of c-Myc expression, qPCR; type: cell-based; details: MOLM13 (FLAG-ENL), 50 μM, 24 hours then another 24 hours
From the text: (§1) FIG. 49A is a graph showing the effect of treatment of MOLM13 cells with compound 39 (XL-13m) on the sensitivity of JQ1-induced decrease in c-Myc expression. Expression of c-Myc was quantified by qPCR. P value by student's t-test. Mean±s.d., three biological replicates. FIG. 49B is a graph showing the effect of treatment of MOLM13 cells with compound 39 (XL-13m) on enrichment of ENL on indicated genes. […] P value by student's t-test. Mean±s.d., triplicate PCR analysis.
(§2) MOLM13 (FLAG-ENL) cells were cultured with or without 50 μM compound XL-13m. Every 2-3 days, live cells were counted by trypan blue exclusion assay and re-plated. […] MOLM13 (FLAG-ENL) cells were cultured with or without 50 μM compound XL-13m for 24 hours, and the cells were treated with 50 μM for another 24 hours. […] Expression of c-Myc was quantified by qPCR.

[3] = tested on: MOLM13 (FLAG-ENL) cells; assay: Cell proliferation, trypan blue exclusion count; type: cell-based; details: 50 μM, live cells counted every 2-3 days
Description: as §2

[4] = target: T2, ENL (Homo sapiens, UniProt Q03111); assay: ChIP-qPCR of ENL enrichment on genes in MOLM13 (FLAG-ENL) cells; type: cell-based; details: 50 μM, 72 hours
T2 construct: expressed in transfected cells; host or cells: MOLM-13 (FLAG-ENL) cells
T2 sequence (Q03111 1-559): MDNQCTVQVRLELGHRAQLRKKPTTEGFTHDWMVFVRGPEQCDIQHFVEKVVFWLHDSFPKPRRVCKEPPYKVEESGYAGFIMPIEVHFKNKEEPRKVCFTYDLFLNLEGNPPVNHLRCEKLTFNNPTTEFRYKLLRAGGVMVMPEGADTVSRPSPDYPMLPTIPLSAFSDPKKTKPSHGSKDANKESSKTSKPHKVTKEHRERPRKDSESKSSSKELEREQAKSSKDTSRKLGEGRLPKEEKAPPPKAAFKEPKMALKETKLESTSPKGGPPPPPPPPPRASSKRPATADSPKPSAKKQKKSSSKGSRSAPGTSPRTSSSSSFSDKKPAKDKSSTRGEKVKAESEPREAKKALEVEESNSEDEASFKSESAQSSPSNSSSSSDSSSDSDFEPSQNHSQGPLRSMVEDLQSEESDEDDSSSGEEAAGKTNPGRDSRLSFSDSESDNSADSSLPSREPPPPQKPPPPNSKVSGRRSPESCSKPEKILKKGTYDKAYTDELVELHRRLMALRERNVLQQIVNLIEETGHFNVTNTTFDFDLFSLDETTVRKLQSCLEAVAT
From the text: as §1
MOLM13 (FLAG-ENL) cells were cultured with or without 50 μM compound XL-13m for 72 hours. […] MOLM13 (FLAG-ENL) cells were incubated with or without 50 μM compound for 16 hours and then were collected for cellular thermal shift assay (CETSA) as previously reported. Anti-FLAG antibody was used to detect ENL proteins and γ-actin blotting served as negative control.

[5] = target: T3, AF9 YEATS domain (Homo sapiens, UniProt P42568); assay: Photo-cross-linking-based competition assay (photoaffinity probe, click chemistry, in-gel fluorescence); type: binding; details: ratio of IC50 values
T3 construct: His-AF9 (1-138); His (N); made in house; host or cells: E. coli Rosetta
T3 sequence (P42568 1-138): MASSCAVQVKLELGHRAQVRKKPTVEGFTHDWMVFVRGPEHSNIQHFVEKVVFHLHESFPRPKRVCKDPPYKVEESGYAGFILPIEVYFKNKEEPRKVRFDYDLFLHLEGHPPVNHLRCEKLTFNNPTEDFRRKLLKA
Description: Mobile phase used were water with 0.1% trifluoroacetic acid (buffer A) and 90% acetonitrile in water with 0.1% trifluoroacetic acid (buffer B). The purity (>95%) and identity of peptides were confirmed by LC-MS. The inhibitory activities of the inhibitors were determined by a photo-cross-linking-based competition assay. […] The reactions were incubated for 1 h at r.t . . . . The reactions were quenched by adding 5 volumes of ice-cold acetone and placed at −20° C. overnight to precipitate proteins. After protein precipitation, samples were centrifuged at 6000×g for 5 min at 4° C. The supernatant was discarded and the pellet was washed with ice-cooled methanol twice and air-dried for 10 min. […] Samples were then resolved by SDS-PAGE. The labeled proteins were visualized by scanning the gel on a Typhoon 9410 variable mode imager (excitation 532 nm, emission filter 580 nm). A photo-cross-linking based method was used in this study to estimate inhibitory activity (FIG. 28). This method requires the use of a photoaffinity probe. The probe (probe 1 (SEQ ID NO:48), see below) is derived from a crotonylated peptide, ligand of the protein, carrying a photo-cross-linker and a terminal alkyne as bioorthogonal. The YEATS domain is incubated and bound to the probe through Kcr-dependent recognition. Upon UV-irradiation, the photo-cross-linker is activated and rapidly cross-linked to the protein, converting the non-covalent protein-probe interaction into a covalent linkage. The probe-labeled protein is subsequently conjugated to an azide-functionalized fluorescence dye (for example, rhodamine-N3, Rho-N3) via Cu(I)-catalyzed azide-alkyne cycloaddition (CuAAC, or “click” chemistry). After SDS-PAGE, the protein can be visualized by in-gel fluorescence scanning. If photo-cross-linking of the YEATS domain with photoaffinity probe is performed in the presence of an inhibitor, which occupies the Kcr binding pocket of the YEATS domain and thus inhibits the protein-probe interaction, the percentage of the YEATS domain in the sample that is labeled by the probe will be reduced. The in-gel fluorescence intensity detected will also be decreased. By varying the concentration of inhibitor added in the sample and quantifying the resulting fluorescence intensities, a competition curve of the inhibitor toward the protein-probe interaction will be obtained, which can be used to estimate the IC50 value. Due to the covalent nature of photo-cross-linking, weak protein-protein interactions can be captured and eventually visualized. The protein concentration used in the assay can be as low as several nanograms per microliter, while the fluorescence signal can still be robustly detected and quantified.

[6] = target: T2, ENL; assay: Cellular thermal shift assay (CETSA) in MOLM-13 (FLAG-ENL) cells; type: cell-based; details: MOLM13 (FLAG-ENL), 50 μM, 16 hours, anti-FLAG
Description: We next applied the cellular thermal shift assay (CETSA) to examine if XL-13m was cell permeable and could target ENL in living cells. MOLM-13 (FLAG-ENL) were treated with XL-13m for […] and then heated at different temperature to denature and precipitate proteins. […] Soluble proteins were extracted by freeze-thaw cycle and subjected to western blotting analysis.
MOLM13 (FLAG-ENL) cells were incubated with or without 50 μM compound for 16 hours and then were collected for cellular thermal shift assay (CETSA) as previously reported. Anti-FLAG antibody was used to detect ENL proteins and γ-actin blotting served as negative control.

CC(=O)N[C@@H](C)C(=O)N[C@@H](CCCNC(=N)N)C(=O)N[C@@H](CCCCNC(=O)c1cnco1)C(N)=O [Compound 39]
pIC50 [1]: 6.25 | sensitivity of JQ1-induced decrease of c-Myc expression [2]: increased the sensitivity | effect on cell proliferation [3]: affected cell proliferation | enrichment of ENL on indicated genes [4]: decrease of the enrichment of ENL | activity on AF9 weaker than on ENL [5]: 4.5 fold | thermal shift: targeting of ENL protein in living cells [6]: revealed the target of ENL protein
